Results on 14 molecules are retold here after patent US20170150719A1, “FUNGICIDAL PYRAZOLES AND THEIR MIXTURES” (E I DU PONT DE NEMOURS AND COMPANY, priority 2010, published 2017).

In one test the test system is Phytophthora infestans. Put plainly: whole plant or invertebrate. It is filed as in vivo. The note with it: for pest or weed control at 200 µg/mL: Phytophthora infestans, in Solanum lycopersicum, read-out: Test C rating (disease control); for Test C rating (disease control) / Test C rating (% disease control): tomato late blight, 100 = 100% disease control; for Test C rating (disease control): 0 = no disease control relative to the controls; for Test C rating (% disease control): preventive spray, rating without asterisk.

A further test concerns Septoria tritici. Put plainly: Test F: wheat leaf blotch, preventive spray on wheat seedlings, visual disease rating. The note with it: 100 = 100% disease control; for pest or weed control at 200 µg/mL: Zymoseptoria tritici; for pest or weed control at 200 µg/mL / Test F rating (disease control): 0 = no disease control relative to the controls; for Test F rating (% disease control): preventive spray, rating without asterisk. Format: in vivo. The text has this:
(§1) A hyphen (-) indicates no test results.

Test [1] concerns Puccinia recondita f. sp. tritici. In words: Test G: wheat leaf rust, spray after inoculation (curative) on wheat seedlings, visual disease rating. As to conditions: 100 = 100% disease control; for pest or weed control at 200 µg/mL / Test G rating (disease control): sprayed after inoculation, 0 = no disease control; for Test G rating (% disease control): spray after inoculation, rating without asterisk. It is filed as in vivo.
Excerpt: as §1

For test [2] the test system is unchanged. Put plainly: Test H: wheat leaf rust, preventive spray on wheat seedlings, visual disease rating. The note with it: 100 = 100% disease control; for pest or weed control at 200 µg/mL: read-out: Test H rating (disease control), wheat leaf rust, sprayed the day before inoculation; for pest or weed control at 200 µg/mL / Test H rating (disease control): 0 = no disease control; for Test H rating (disease control) / Test H rating (% disease control): wheat leaf rust; for Test H rating (disease control): sprayed the day before inoculation; for Test H rating (% disease control): preventive spray, rating without asterisk.

For the next test, the system named is Botrytis cinerea. Put plainly: Test A: tomato Botrytis, preventive spray on tomato seedlings, visual disease rating. The note with it: 100 = 100% disease control; for pest or weed control at 200 µg/mL: Botrytis cinerea, in Solanum lycopersicum, read-out: Test A rating (disease control), tomato Botrytis; for pest or weed control at 200 µg/mL / Test A rating (disease control): 0 = no disease control relative to the controls; for Test A rating (disease control) / Test A rating (% disease control): tomato Botrytis; for Test A rating (% disease control): preventive spray, 0 = no control relative to controls, rating without asterisk.

A further test concerns Alternaria solani. In words: Test B: tomato early blight, preventive spray on tomato seedlings, visual disease rating. As to conditions: for pest or weed control at 200 µg/mL: Alternaria solani, in Solanum lycopersicum, read-out: Test B rating (disease control); for Test B rating (disease control) / Test B rating (% disease control): tomato early blight, 100 = 100% disease control; for Test B rating (disease control): 0 = no disease control relative to the controls; for Test B rating (% disease control): preventive spray, rating without asterisk.

In test [3] the test system is Blumeria graminis f. sp. tritici. In words: Test I: wheat powdery mildew, preventive spray on wheat seedlings, visual disease rating. As to conditions: 100 = 100% disease control; for pest or weed control at 200 µg/mL: Blumeria graminis, in Triticum aestivum, read-out: Test I rating (disease control), wheat powdery mildew; for pest or weed control at 200 µg/mL / Test I rating (disease control): 0 = no disease control relative to the controls; for Test I rating (disease control) / Test I rating (% disease control): wheat powdery mildew; for Test I rating (% disease control): preventive spray, rating without asterisk.

In the next test the test system is Septoria nodorum. In words: Test E: Septoria glume blotch, preventive spray on wheat seedlings, visual disease rating. The note with it: 100 = 100% disease control; for pest or weed control at 200 µg/mL: Parastagonospora nodorum, in Triticum aestivum, read-out: Test E rating (disease control), Septoria glume blotch; for pest or weed control at 200 µg/mL / Test E rating (disease control): 0 = no disease control relative to the controls; for Test E rating (disease control): Septoria glume blotch; for Test E rating (% disease control): Septoria glume blotch on wheat, preventive spray, rating without asterisk.

On to `Cc1nn(C)c(Nc2c(F)cc(Cl)cc2Cl)c1-c1ccc(F)cc1Cl` [Compound 136, 4-(2-chloro-4-fluorophenyl)-N-(2,4-dichloro-6-fluorophenyl)-1,3-dimethyl-1H-pyrazol-5-amine], for which the pest or weed control at 200 µg/mL was 0% in the test with Phytophthora infestans; 100% in the test with Septoria tritici; 100% in test [1]; 100% in test [2]; 100% in the test on Botrytis cinerea; 100% in the test with Alternaria solani. Besides, the pest or weed control at 200 µg/mL (in test [3]; in the test with Septoria nodorum) was 100% each time.
As for `Cc1nn(C)c(Nc2c(Cl)cc(F)cc2Cl)c1-c1ccc(F)cc1Cl` [Compound 138, 4-(2-chloro-4-fluorophenyl)-N-(2,6-dichloro-4-fluorophenyl)-1,3-dimethyl-1H-pyrazol-5-amine], the pest or weed control at 200 µg/mL with Phytophthora infestans is 0%; in the test on Septoria tritici, 100%; in test [1], 17%; in test [2], 100%; in the test on Botrytis cinerea it was 100%; with Alternaria solani it was 66%. Also, the pest or weed control at 200 µg/mL was found to be 99% in test [3] and 0% in the test on Septoria nodorum.
For the molecule `Cc1nn(C)c(Nc2c(Cl)cc(F)cc2Cl)c1-c1c(F)cccc1F` [Compound 142, N-(2,6-dichloro-4-fluorophenyl)-4-(2,6-difluorophenyl)-1,3-dimethyl-1H-pyrazol-5-amine], the pest or weed control at 200 µg/mL is 0% in the test with Phytophthora infestans; 100% in the test with Septoria tritici; 0% in test [1]; 100% in test [2]; 100% in the test with Botrytis cinerea; 96% in the test on Alternaria solani. Besides, the pest or weed control at 200 µg/mL was determined as 100% in test [3] and 92% with Septoria nodorum.
As for `Cc1nn(C)c(Nc2c(F)cc(F)cc2Br)c1-c1ccc(F)cc1F` [Compound 143, N-(2-bromo-4,6-difluorophenyl)-4-(2,4-difluorophenyl)-1,3-dimethyl-1H-pyrazol-5-amine], the pest or weed control at 200 µg/mL in the test on Phytophthora infestans worked out at 0%; with Septoria tritici it was 100%; in test [1], 100%; in test [2] it was 100%; in the test with Botrytis cinerea it was 100%; with Alternaria solani, 100%. Also, the pest or weed control at 200 µg/mL (in test [3]; with Septoria nodorum) was 100% throughout.
For `Cc1nn(C)c(Nc2c(F)cc(Br)cc2F)c1-c1c(F)cccc1F` [Compound 145, N-(4-bromo-2,6-difluorophenyl)-4-(2,6-difluorophenyl)-1,3-dimethyl-1H-pyrazol-5-amine], the pest or weed control at 200 µg/mL in the test on Phytophthora infestans was determined as 0%; in the test with Septoria tritici it was 100%; in test [1] it was 0%; in test [2] it was 28%; in the test on Botrytis cinerea it was 99%; in the test with Alternaria solani it was 0%. The pest or weed control at 200 µg/mL in test [3] was determined as 90%; in the test with Septoria nodorum it was 0%.
In the case of `Cc1nn(C)c(Nc2c(F)cc(Cl)cc2Cl)c1-c1ccc(F)cc1F` [Compound 161, N-(2,4-dichloro-6-fluorophenyl)-4-(2,4-difluorophenyl)-1,3-dimethyl-1H-pyrazol-5-amine], in the test on Phytophthora infestans, the pest or weed control at 200 µg/mL was found to be 0%. Moreover, the “Test F rating (disease control)” value in the test on Septoria tritici came out at 99%. In addition, the “Test G rating (disease control)” value in test [1] stood at 100%. The “Test H rating (disease control)” value in test [2] is 100%. In the test on Botrytis cinerea, the “Test A rating (disease control)” value is given as 100%. Further, the “Test B rating (disease control)” value in the test with Alternaria solani amounted to 99%. Besides, in test [3], the “Test I rating (disease control)” value is recorded as 100%. Further, the “Test E rating (disease control)” value with Septoria nodorum turned out to be 100%.
Consider `Cc1nn(C)c(Nc2ccc(C#N)cc2F)c1-c1c(F)cc(F)cc1F` [compound 34], for which the “Test C rating (disease control)” value in the test with Phytophthora infestans is 9%. Further, the “Test F rating (disease control)” value in the test on Septoria tritici is 100%. In addition, the “Test G rating (disease control)” value in test [1] came out at 0%. Also, the “Test H rating (disease control)” value in test [2] is reported as 99%. Also, the “Test A rating (disease control)” value in the test with Botrytis cinerea was found to be 100%. Further, the “Test B rating (disease control)” value in the test with Alternaria solani amounted to 99%. Also, the “Test I rating (disease control)” value in test [3] was 99%. For the same molecule, the “Test E rating (disease control)” value in the test on Septoria nodorum was 94%.
In the case of `Cc1nn(C)c(Oc2c(F)cc(C#N)cc2F)c1-c1ccc(F)cc1F` [compound 45], the “Test C rating (disease control)” value in the test with Phytophthora infestans was 0%. In addition, the “Test F rating (disease control)” value in the test on Septoria tritici worked out at 98%. Moreover, the “Test G rating (disease control)” value in test [1] was determined as 0%. The “Test H rating (disease control)” value in test [2] amounted to 100%. Moreover, in the test on Botrytis cinerea, the “Test A rating (disease control)” value is reported as 100%. In addition, the “Test B rating (disease control)” value with Alternaria solani stood at 99%. Moreover, the “Test I rating (disease control)” value in test [3] is recorded as 99%. Moreover, in the test with Septoria nodorum, the “Test E rating (disease control)” value is 99%.
As for `Cc1nn(C)c(Nc2ccc(C#N)cc2F)c1-c1c(F)cccc1F` [compound 59], in the test with Phytophthora infestans, the “Test C rating (disease control)” value is reported as 0%. Also, the “Test F rating (disease control)” value in the test on Septoria tritici is on record as 100%. Moreover, in test [1], the “Test G rating (disease control)” value is recorded as 9%. In addition, the “Test H rating (disease control)” value in test [2] amounted to 98%. Further, in the test with Botrytis cinerea, the “Test A rating (disease control)” value was determined as 99%. In the test on Alternaria solani, the “Test B rating (disease control)” value is recorded as 94%. For the same molecule, the “Test I rating (disease control)” value in test [3] came out at 98%. For the same molecule, the “Test E rating (disease control)” value in the test on Septoria nodorum is on record as 73%.
For the molecule `Cc1nn(C)c(Nc2c(F)cc(Cl)cc2F)c1-c1ccc(Cl)cc1Cl` [compound 157], the “Test C rating (disease control)” value in the test with Phytophthora infestans came to 0%. The “Test F rating (disease control)” value with Septoria tritici is listed as 100%. Further, in test [1], the “Test G rating (disease control)” value was found to be 27%. The “Test H rating (disease control)” value in test [2] worked out at 100%. In the test with Botrytis cinerea, the “Test A rating (disease control)” value worked out at 100%. In addition, the “Test B rating (disease control)” value with Alternaria solani is on record as 97%. For the same molecule, the “Test I rating (disease control)” value in test [3] was found to be 99%. Also, the “Test E rating (disease control)” value in the test with Septoria nodorum is given as 87%.
For `Cc1nn(C)c(Nc2ccc(Cl)cc2F)c1-c1c(F)cccc1F` [compound 162], in the test with Phytophthora infestans, the “Test C rating (disease control)” value was determined as 0%. Also, in the test on Septoria tritici, the “Test F rating (disease control)” value was 100%. In addition, the “Test G rating (disease control)” value in test [1] amounted to 9%. The “Test H rating (disease control)” value in test [2] is given as 100%. Further, in the test on Botrytis cinerea, the “Test A rating (disease control)” value is on record as 100%. The “Test B rating (disease control)” value in the test on Alternaria solani is reported as 88%. Also, the “Test I rating (disease control)” value in test [3] turned out to be 100%. In addition, the “Test E rating (disease control)” value in the test on Septoria nodorum is listed as 0%.
For `Cc1nn(C)c(Nc2c(Cl)cc(Cl)cc2Cl)c1-c1ccc(F)cc1F` [compound 165], the “Test C rating (disease control)” value with Phytophthora infestans came to 0%. In addition, the “Test F rating (disease control)” value in the test on Septoria tritici came out at 100%. In test [1], the “Test G rating (disease control)” value is 67%. In addition, in test [2], the “Test H rating (disease control)” value stood at 99%. In addition, the “Test A rating (disease control)” value in the test on Botrytis cinerea is reported as 100%. Also, the “Test B rating (disease control)” value with Alternaria solani is recorded as 0%. Moreover, the “Test I rating (disease control)” value in test [3] is on record as 99%. Further, the “Test E rating (disease control)” value with Septoria nodorum is 0%.
`Cc1nn(C)c(Nc2c(F)cc(Cl)cc2I)c1-c1ccc(F)cc1F` [compound 180]: the “Test C rating (% disease control)” value in the test on Phytophthora infestans is reported as 9%. The “Test F rating (% disease control)” value in the test on Septoria tritici is given as 100%. In addition, the “Test G rating (% disease control)” value in test [1] is listed as 98%. For the same molecule, in test [2], the “Test H rating (% disease control)” value is given as 100%. Besides, the “Test A rating (% disease control)” value with Botrytis cinerea stood at 100%. In addition, in the test with Alternaria solani, the “Test B rating (% disease control)” value was 100%. For the same molecule, the “Test I rating (% disease control)” value in test [3] stood at 100%. The “Test E rating (% disease control)” value with Septoria nodorum is 99%.
With `COc1ccc(-c2c(C)nn(C)c2Nc2c(F)cc(Cl)cc2F)c(F)c1` [compound 185], in the test on Phytophthora infestans, the “Test C rating (% disease control)” value was 0%. Further, the “Test F rating (% disease control)” value with Septoria tritici stood at 100%. Also, in test [1], the “Test G rating (% disease control)” value came to 0%. In addition, the “Test H rating (% disease control)” value in test [2] amounted to 99%. Also, in the test on Botrytis cinerea, the “Test A rating (% disease control)” value came to 100%. Besides, the “Test B rating (% disease control)” value in the test on Alternaria solani amounted to 99%. Moreover, the “Test I rating (% disease control)” value in test [3] is recorded as 100%. Also, in the test with Septoria nodorum, the “Test E rating (% disease control)” value stood at 60%.
